Assays:
wild-type BTK [1] = target: T1, wild-type BTK (Homo sapiens, UniProt Q06187); assay: BTK in vitro activity assay (ADP-Glo, poly-Glu:Tyr phosphorylation, TCEP); conditions: for remaining activity at 0.1 µM: read-out: Remaining BTK activity (%); for inhibition at 0.1 µM: read-out: inhibition of BTK activity
wild-type BTK [2] = target: T1, wild-type BTK; assay: BTK in vitro activity assay in the presence of DTT vs TCEP (Figure S6); format: biochemical; conditions: 100 nM compound; 2 mM DTT instead of TCEP

T1 sequence (Q06187 whole entry): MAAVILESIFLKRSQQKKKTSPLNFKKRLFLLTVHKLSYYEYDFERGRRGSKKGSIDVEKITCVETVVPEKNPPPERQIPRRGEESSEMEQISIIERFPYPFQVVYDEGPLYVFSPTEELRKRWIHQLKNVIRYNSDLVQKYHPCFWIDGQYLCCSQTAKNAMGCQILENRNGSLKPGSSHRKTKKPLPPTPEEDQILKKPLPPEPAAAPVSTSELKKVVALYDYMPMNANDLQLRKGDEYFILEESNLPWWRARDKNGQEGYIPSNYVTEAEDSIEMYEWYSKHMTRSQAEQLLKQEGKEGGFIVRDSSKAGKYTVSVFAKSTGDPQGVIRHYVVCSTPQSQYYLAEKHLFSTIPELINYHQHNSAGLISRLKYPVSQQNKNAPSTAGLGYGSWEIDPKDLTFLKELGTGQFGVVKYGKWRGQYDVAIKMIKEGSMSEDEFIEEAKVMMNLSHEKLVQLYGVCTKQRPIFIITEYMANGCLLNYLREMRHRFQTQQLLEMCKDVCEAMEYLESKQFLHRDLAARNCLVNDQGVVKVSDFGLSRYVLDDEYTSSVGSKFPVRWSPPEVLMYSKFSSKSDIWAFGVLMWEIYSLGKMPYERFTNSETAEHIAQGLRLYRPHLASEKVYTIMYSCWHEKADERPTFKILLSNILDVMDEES

| Compound | remaining activity at 0.1 µM (wild-type BTK [1]) [%] | inhibition at 0.1 µM (wild-type BTK [1]) [%] | BTK inhibition in the presence of DTT (wild-type BTK [2]) |
| --- | --- | --- | --- |
| CS(=O)(=O)c1ncc(Cl)c(C(=O)N2CCCC(n3nc(-c4ccc(Oc5ccccc5)cc4)c4c(N)ncnc43)C2)n1 (stereo in doubt) [Compound 5d, (R)-(3-(4-Amino-3-(4-phenoxyphenyl)-1H-pyrazolo[3,4-d]pyrimidin-1-yl)piperidin-1-yl)(5-chloro-2-(methylsulfonyl)pyrimidin-4-yl)methanone] | 17 ± 2 | 80 to 90 | almost no inhibition |
| COC(=O)c1cnc(SC)nc1N1CCC[C@@H](n2nc(-c3ccc(Oc4ccccc4)cc3)c3c(N)ncnc32)C1 [Compound 7b, Methyl (R)-4-(3-(4-Amino-3-(4-phenoxyphenyl)-1H-pyrazolo[3,4-d]pyrimidin-1-yl)piperidin-1-yl)-2-(methylthio)pyrimidine-5-carboxylate] | 76 ± 2 | – | – |
| Nc1ncnc2c1c(-c1ccc(Oc3ccccc3)cc1)nn2[C@@H]1CCCN(C(=O)c2cnc(Sc3ccccc3)nc2)C1 [Compound 4g, (R)-(3-(4-Amino-3-(4-phenoxyphenyl)-1H-pyrazolo[3,4-d]pyrimidin-1-yl)piperidin-1-yl)(2-(phenylthio)pyrimidin-5-yl)methanone] | 100 ± 6 | – | – |
| CSc1ncc(N2CCCC(n3nc(-c4ccc(Oc5ccccc5)cc4)c4c(N)ncnc43)C2)c(C)n1 (stereo not drawn) [Compound 7e, 1-(1-(4-Methyl-2-(methylthio)pyrimidin-5-yl)piperidin-3-yl)-3-(4-phenoxyphenyl)-1H-pyrazolo[3,4-d]pyrimidin-4-amine] | 69 ± 2 | – | – |
| CNC(=O)c1cnc(SC)nc1N1CCCC(n2nc(-c3ccc(Oc4ccccc4)cc3)c3c(N)ncnc32)C1 (stereo not drawn) [Compound 7d, 4-(3-(4-Amino-3-(4-phenoxyphenyl)-1H-pyrazolo[3,4-d]pyrimidin-1-yl)piperidin-1-yl)-N-methyl-2-(methylthio)pyrimidine-5-carboxamide] | 78 ± 2 | – | – |
| CS(=O)(=O)c1nccc(N2CCC[C@@H](n3nc(-c4ccc(Oc5ccccc5)cc4)c4c(N)ncnc43)C2)n1 [Compound 8e, (R)-1-(1-(2-(Methylsulfonyl)pyrimidin-4-yl)piperidin-3-yl)-3-(4-phenoxyphenyl)-1H-pyrazolo[3,4-d]pyrimidin-4-amine] | 48 ± 0.3 | – | – |
| Nc1ncnc2c1c(-c1ccc(Oc3ccccc3)cc1)nn2C1CCCN(C(=O)c2cnc(S(=O)(=O)c3ccccc3)nc2)C1 (stereo in doubt) [Compound 5g, (R)-(3-(4-Amino-3-(4-phenoxyphenyl)-1H-pyrazolo[3,4-d]pyrimidin-1-yl)piperidin-1-yl)(2-(phenylsulfonyl)pyrimidin-5-yl)methanone] | 35 ± 1 | 40 to 60 | – |
| Nc1ncnc2c1c(-c1ccc(Oc3ccccc3)cc1)nn2[C@@H]1CCCN(C(=O)c2cncnc2)C1 [Compound 12b, (R)-(3-(4-Amino-3-(4-phenoxyphenyl)-1H-pyrazolo[3,4-d]pyrimidin-1-yl)piperidin-1-yl)(pyrimidin-5-yl)methanone] | 83 ± 7 | – | – |
| CCOC(=O)c1cnc(SC)nc1N1CCC[C@@H](n2nc(-c3ccc(Oc4ccccc4)cc3)c3c(N)ncnc32)C1 [Compound 7c, Ethyl (R)-4-(3-(4-Amino-3-(4-phenoxyphenyl)-1H-pyrazolo[3,4-d]pyrimidin-1-yl)piperidin-1-yl)-2-(methylthio)pyrimidine-5-carboxylate] | 105 ± 4 | – | – |
| Nc1ncnc2c1c(-c1ccc(Oc3ccccc3)cc1)nn2[C@@H]1CCCN(C(=O)c2ccccc2)C1 [Compound 10, (R)-(3-(4-Amino-3-(4-phenoxyphenyl)-1H-pyrazolo[3,4-d]pyrimidin-1-yl)piperidin-1-yl)(phenyl)methanone] | 100 ± 0.2 | – | – |
| CS(=O)(=O)c1ncc(N2CCC[C@@H](n3nc(-c4ccc(Oc5ccccc5)cc4)c4c(N)ncnc43)C2)cn1 [Compound 9b, (R)-1-(1-(2-(Methylsulfonyl)pyrimidin-5-yl)piperidin-3-yl)-3-(4-phenoxyphenyl)-1H-pyrazolo[3,4-d]pyrimidin-4-amine] | 103 ± 5 | – | – |
| Cc1nc(S(C)(=O)=O)ncc1N1CCCC(n2nc(-c3ccc(Oc4ccccc4)cc3)c3c(N)ncnc32)C1 (stereo not drawn) [Compound 9a, 1-(1-(4-Methyl-2-(methylsulfonyl)pyrimidin-5-yl)piperidin-3-yl)-3-(4-phenoxyphenyl)-1H-pyrazolo[3,4-d]pyrimidin-4-amine] | 80 ± 3 | – | – |
| CSc1ncc(C)c(N2CCCC(n3nc(-c4ccc(Oc5ccccc5)cc4)c4c(N)ncnc43)C2)n1 (stereo not drawn) [Compound 7a, 1-(1-(5-Methyl-2-(methylthio)pyrimidin-4-yl)piperidin-3-yl)-3-(4-phenoxyphenyl)-1H-pyrazolo[3,4-d]pyrimidin-4-amine] | 40 ± 0.3 | – | – |

Next, values leading:

| remaining activity at 0.1 µM (wild-type BTK [1]) [%] | inhibition at 0.1 µM (wild-type BTK [1]) [%] | BTK inhibition in the presence of DTT (wild-type BTK [2]) | Compound |
| --- | --- | --- | --- |
| 100 ± 6 | – | – | CSc1ncc(Cl)c(C(=O)N2CCC[C@@H](n3nc(-c4ccc(Oc5ccccc5)cc4)c4c(N)ncnc43)C2)n1 [Compound 4d, (R)-(3-(4-Amino-3-(4-phenoxyphenyl)-1H-pyrazolo[3,4-d]pyrimidin-1-yl)piperidin-1-yl)(5-chloro-2-(methylthio)pyrimidin-4-yl)methanone] |
| 40 ± 1 | 40 to 60 | – | Nc1ncnc2c1c(-c1ccc(Oc3ccccc3)cc1)nn2[C@H]1CCCN(C(=O)c2ccnc(S(=O)(=O)c3ccccc3)n2)C1 [Compound 5c, (3-(4-Amino-3-(4-phenoxyphenyl)-1H-pyrazolo[3,4-d]pyrimidin-1-yl)piperidin-1-yl)(2-(phenylsulfonyl)pyrimidin-4-yl)methanone] |
| 53 ± 2 | – | – | Nc1ncnc2c1c(-c1ccc(Oc3ccccc3)cc1)nn2[C@@H]1CCCN(C(=O)c2ccncn2)C1 [Compound 12a, (R)-(3-(4-Amino-3-(4-phenoxyphenyl)-1H-pyrazolo[3,4-d]pyrimidin-1-yl)piperidin-1-yl)(pyrimidin-4-yl)methanone] |
| 82 ± 1 | – | – | CCCCSc1nccc(C(=O)N2CCC[C@@H](n3nc(-c4ccc(Oc5ccccc5)cc4)c4c(N)ncnc43)C2)n1 [Compound 4b, (R)-(3-(4-Amino-3-(4-phenoxyphenyl)-1H-pyrazolo[3,4-d]pyrimidin-1-yl)piperidin-1-yl)(2-(butylthio)pyrimidin-4-yl)methanone] |
| 84 ± 8 | – | – | CSc1nccc(C(=O)N2CCC[C@@H](n3nc(-c4ccc(Oc5ccccc5)cc4)c4c(N)ncnc43)C2)n1 [Compound 4a, (R)-(3-(4-Amino-3-(4-phenoxyphenyl)-1H-pyrazolo[3,4-d]pyrimidin-1-yl)piperidin-1-yl)(2-(methylthio)pyrimidin-4-yl)methanone] |
| 58 ± 3 | 40 to 60 | – | CCCCS(=O)(=O)c1nccc(C(=O)N2CCC[C@H](n3nc(-c4ccc(Oc5ccccc5)cc4)c4c(N)ncnc43)C2)n1 [Compound 5b, (3-(4-Amino-3-(4-phenoxyphenyl)-1H-pyrazolo[3,4-d]pyrimidin-1-yl)piperidin-1-yl)(2-(butylsulfonyl)pyrimidin-4-yl)methanone] |
| 9 ± 2 | 80 to 90 | – | CS(=O)(=O)c1ncc(C(=O)N2CCCC(n3nc(-c4ccc(Oc5ccccc5)cc4)c4c(N)ncnc43)C2)cn1 (stereo in doubt) [Compound 5e, (R)-(3-(4-Amino-3-(4-phenoxyphenyl)-1H-pyrazolo[3,4-d]pyrimidin-1-yl)piperidin-1-yl)(2-(methylsulfonyl)pyrimidin-5-yl)methanone] |
| 84 ± 5 | – | – | CCCCSc1ncc(C(=O)N2CCC[C@@H](n3nc(-c4ccc(Oc5ccccc5)cc4)c4c(N)ncnc43)C2)cn1 [Compound 4f, (R)-(3-(4-Amino-3-(4-phenoxyphenyl)-1H-pyrazolo[3,4-d]pyrimidin-1-yl)piperidin-1-yl)(2-(butylthio)pyrimidin-5-yl)methanone] |
| 17 ± 1 | 80 to 90 | – | CS(=O)(=O)c1nccc(C(=O)N2CCCC(n3nc(-c4ccc(Oc5ccccc5)cc4)c4c(N)ncnc43)C2)n1 (stereo in doubt) [Compound 5a, (R)-(3-(4-Amino-3-(4-phenoxyphenyl)-1H-pyrazolo[3,4-d]pyrimidin-1-yl)piperidin-1-yl)(2-(methylsulfonyl)pyrimidin-4-yl)methanone] |
| 38 ± 2 | 40 to 60 | – | CCCCS(=O)(=O)c1ncc(C(=O)N2CCCC(n3nc(-c4ccc(Oc5ccccc5)cc4)c4c(N)ncnc43)C2)cn1 (stereo in doubt) [Compound 5f, (R)-(3-(4-Amino-3-(4-phenoxyphenyl)-1H-pyrazolo[3,4-d]pyrimidin-1-yl)piperidin-1-yl)(2-(butylsulfonyl)pyrimidin-5-yl)methanone] |
| 83 ± 9 | – | – | CSc1ncc(C(=O)N2CCC[C@@H](n3nc(-c4ccc(Oc5ccccc5)cc4)c4c(N)ncnc43)C2)cn1 [Compound 4e, (R)-(3-(4-Amino-3-(4-phenoxyphenyl)-1H-pyrazolo[3,4-d]pyrimidin-1-yl)piperidin-1-yl)(2-(methylthio)pyrimidin-5-yl)methanone] |
| 98 ± 5 | – | – | Nc1ncnc2c1c(-c1ccc(Oc3ccccc3)cc1)nn2[C@@H]1CCCN(C(=O)c2ccnc(Sc3ccccc3)n2)C1 [Compound 4c, (R)-(3-(4-Amino-3-(4-phenoxyphenyl)-1H-pyrazolo[3,4-d]pyrimidin-1-yl)piperidin-1-yl)(2-(phenylthio)pyrimidin-4-yl)methanone] |

Reference: PMC11345841, “Exploring 2-Sulfonylpyrimidine Warheads as Acrylamide Surrogates for Targeted Covalent Inhibition: A BTK Story” (Journal of Medicinal Chemistry, 2024)
